Reference: patent US9889135B2, “Companion diagnostic for CDK4 inhibitors” (Memorial Sloan-Kettering Cancer Center, priority 2013, dated 2018)
Peptide text beside a SMILES is read from it. * marks the point of attachment. Cbz = O=C(OCc1ccccc1)*

What was measured:
[1] = system: MDM2 in LS8817 and LS141 cells; assay: MDM2 level after proteasome inhibition in PD0332991 treated cells; format: cell-based, human; settings: 10 μM MG132 added to cells treated with PD0332991 for two days
LS8817 cells = assay: doxorubicin effect on LS8817 cells; format: cell-based, human
WD/DDLS cells = settings: Ambrosini et al., 2007, Singer et al.; cited from earlier work
[2] = system: MDM2 and p21 in LS8817, LS0082, LS8107 and LS7785-1 cells; assay: p53 targets by immunoblot after nutlin-3a; format: cell-based, human; settings: forty-eight hours; all of the cell lines
Description: The indicated cell lines were treated with nutlin-3a or vehicle control and extracts were prepared for immunoblotting (A) or annexin V staining (B) forty-eight hours after treatment. Mean percentage of annexin V+/7-AAD− cells was calculated from three or more independent experiments. Error bars represent standard deviation (*p<0.05).

WD/DDLS cell lines = assay: annexin V staining (apoptosis); format: cell-based, human; settings: nutlin-3a, forty-eight hours; LS8817, LS0082, LS8107 and LS7785-1
Description: FIG. 1A-C. […] Mean percentage of BrdU incorporation or annexin V+/7-AAD− cells was calculated from three or more independent experiments. Error bars represent standard deviation (*p<0.05).
FIG. 13A-B. Nutlin-3a induces apoptosis in all the liposarcoma cell lines. The indicated cell lines were treated with nutlin-3a or vehicle control and extracts were prepared for immunoblotting (A) or annexin V staining (B) forty-eight hours after treatment. Mean percentage of annexin V+/7-AAD− cells was calculated from three or more independent experiments. Error bars represent standard deviation (*p<0.05).
Cells were stained with BrdU (20 μM for two hours) or annexin V as previously described (22, 48). […] was determined by staining with propidium iodine and FACS analyses (49).

CC(C)C[C@@H](C=O)NC(=O)[C@H](CC(C)C)NC(=O)[C@H](CC(C)C)NC(=O)OCc1ccccc1 [MG132] (Cbz-Leu-Leu-Leu-aldehyde)
MDM2 level after addition of MG132 [1]: re-accumulation

COc1cccc2c1C(=O)c1c(O)c3c(c(O)c1C2=O)C[C@@](O)(C(=O)CO)C[C@@H]3O[C@H]1C[C@H](N)[C@H](O)[C@H](C)O1 [doxorubicin]
MDM2 levels (LS8817 cells): without a reduction | p53 (LS8817 cells): accumulation | senescence (LS8817 cells): entry of the LS8817 cells into senescence

COc1ccc(C2=N[C@@H](c3ccc(Cl)cc3)[C@@H](c3ccc(Cl)cc3)N2C(=O)N2CCNC(=O)C2)c(OC(C)C)c1 [nutlin-3a]
cell response to nutlin-3a (WD/DDLS cells): growth arrest, p53 accumulation and apoptosis | p53 targets, MDM2 and p21 [2]: increased | percentage of annexin V stained apoptotic cells (WD/DDLS cell lines): increased
